Patent US6639058B2, “Method of dissolving preformed β-amyloid peptide fibrils in vitro by poly-lysine” (priority 2001, dated 2003)

What was measured:
[1] = target: T1, preformed βA25-35 fibrils (Homo sapiens, UniProt P05067); assay: Electron microscopy analysis of the ability to dissolve preformed βA fibrils in vitro (βA25-35); assay type: biochemical; conditions: for ability to dissolve preformed βA25-35 fibrils: 10 μl tested compound mixed with 10 μl preformed fibrils, negative-staining electron microscopy immediately performed, Poly-L-Lysine 25 mg/ml, Polyethylene glycol 10 mg/ml, L-Lysine 1 M
T1 construct: 0.5 mg/ml for βA25-35 prepared in water or in PBS
Method: (§1) Aliquots of βA at a concentration of 1.5 mg/ml for both βA1-40 and βA1-42 and 0.5 mg/ml for βA25-35 prepared in water or in PBS, were incubated for 5 days at 37° C. At the end of the incubation period, 10 μl of βA solution were mixed with 10 μl of water for negative-staining electron microscopy analysis.
(§2) All compounds used to test the ability to dissolve preformed βA fibrils in vitro: Poly-L-Lysine, Polyethylene glycol and L-Lysine, were prepared in water and at a concentration of 25 mg/ml, 10 mg/ml and 1 M respectively. Then, 10 μl of tested compound were mixed with 10 μl of water for negative-staining electron microscopy analysis.
(§3) In order to evaluate the ability of compounds to dissolve preformed βA fibrils in vitro, 10 μl of tested compound were mixed with 10 μl of preformed βA fibrils and the negative-staining electron microscopy analysis was immediately performed.
(§4) Samples of tested compound, βA with or without tested compound were placed on carbon formar-coated 200-mesh nickel grids. The grids were stained for 5 minutes with 1% phosphotungstic acid and visualized on a Philips EM 401 electron microscope at 80 kV.

preformed βA1-40 fibrils = target: T2, preformed βA1-40 fibrils (Homo sapiens, UniProt P05067); assay: Electron microscopy analysis of the ability to dissolve preformed βA fibrils in vitro (βA1-40); assay type: biochemical; conditions: data not shown
T2 construct: 1.5 mg/ml for both βA1-40 and βA1-42
T2 sequence (P05067 672-711): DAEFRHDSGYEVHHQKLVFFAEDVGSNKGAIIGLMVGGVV
Method: as §1, §2, §3, §4

Row | Molecule | ability to dissolve preformed βA25-35 fibrils [1] | speed of efficiency in dissolving preformed βA fibrils ([1]; in vitro, electron microscopy immediately after mixing) | potential to dissolve preformed βA1-40 fibrils (preformed βA1-40 fibrils)
1 | Cl.NCCCC[C@H](N)C(=O)O [L-Lysine, L-Lysine, monohydrochloride, reference compound] | not effective |  | 
2 | Poly-L-Lysine, hydrobomide | completely dissolved | instantaneous | also observed
